From patent US20100273711A1, “INDIVIDUALIZED CANCER TREATMENTS” (priority 2007, published 2010)
Entries after “also recorded” stand apart in the source; their conditions may differ.

Tests used:
Molt-4 = settings: pemetrexed, cell line Molt-4; cited from earlier work
BT20 = settings: pemetrexed, cell line BT20; cited from earlier work
FUOV1 = settings: pemetrexed, cell line FUOV1; cited from earlier work
HL-60 = settings: pemetrexed, cell line HL-60; cited from earlier work
C8161 = settings: pemetrexed, cell line C8161; cited from earlier work
MCF7 = settings: pemetrexed, cell line MCF7; cited from earlier work
HS578T = settings: pemetrexed, cell line HS578T; cited from earlier work
MALME-3M = settings: pemetrexed, cell line MALME-3M; cited from earlier work
SNU423 = settings: pemetrexed, cell line SNU423; cited from earlier work
NCI-H460 = settings: pemetrexed, cell line NCI-H460; cited from earlier work
NCI-H226 = settings: pemetrexed, cell line NCI-H226; cited from earlier work
ME43 = settings: pemetrexed, cell line me43; cited from earlier work
MDA-MB-231 = settings: pemetrexed, cell line MDA-MB-231; cited from earlier work
NSCLC cell line (H2030) = experiment: Cell proliferation and drug sensitivity assay (MTT colorimetric assay, 96 hrs), H2030; format: cell-based
Protocol: Lung and ovarian cancer cell culture. The NSCLC cell lines (H23, H225, H322, H358, H441, H520, A549, H647, H838, H1650, H1651, H1666, H1734, H1793, H1838, H2030 and H2 126) were grown as recommended by the supplier (ATCC, Rockville, Mo.). The ovarian cancer cell lines (OCV AR-3, OVCAR-5, TOV-21G and TOV-1120) were grown as recommended by the supplier (ATCC, Rockville, Mo.). FUOV-1, a human ovarian carcinoma, was grown according to the supplier (DSMZ, Braunschweig, Germany). Ten additional cell lines (C13, OV2008, A2780-CP, A2780S, IGROV-1, T8, IMCC3, 1MCC5, SKOV3 and A200S) were provided by Dr. Patricia Kruk (University of South Florida, Fla.). These ten cell lines were grown in RPMI 1640, supplemented with 10% Fetal Bovine Serum, 1% Sodium pyruvate, and 1% non essential amino acids. Tissue culture media and Thiazolyl Blue Tetrazolium Bromide were purchased from Sigma Aldrich (St. Louis, Mo.). […]
Cell proliferation and Drug sensitivity assays. Optimal cell number and linear range of drug concentration were determined for each cell line and drug as described previously (Bild A, Yao G, Chang S T, et al: Oncogenic pathways signatures in human cancers as guide to targeted therapies. Nature 439(7074):353-357, 2006, Potti A, Dressman H K, Bild A, et al: Genomic signatures to guide the use of chemotherapeutics. Nature Medicine 12(11): 1294-1300, 2006). […]

SMILES: Nc1nc2[nH]cc(CCc3ccc(C(=O)N[C@@H](CCC(=O)O)C(=O)O)cc3)c2c(=O)[nH]1 [Pemetrexed, pemetrexed]
- Resistant (Res) or Sensitive (Sen) (Molt-4): Res
- Resistant (Res) or Sensitive (Sen) (BT20): Sen
- Resistant (Res) or Sensitive (Sen) (FUOV1): Sen
- Resistant (Res) or Sensitive (Sen) (HL-60): Res
- Resistant (Res) or Sensitive (Sen) (C8161): Res
- Resistant (Res) or Sensitive (Sen) (MCF7): Res
- Resistant (Res) or Sensitive (Sen) (HS578T): Sen
- Resistant (Res) or Sensitive (Sen) (MALME-3M): Sen
- Resistant (Res) or Sensitive (Sen) (SNU423): Res
- Resistant (Res) or Sensitive (Sen) (NCI-H460): Res
- Resistant (Res) or Sensitive (Sen) (NCI-H226): Sen
- Resistant (Res) or Sensitive (Sen) (ME43): Res
- Resistant (Res) or Sensitive (Sen) (MDA-MB-231): Sen
- sensitivity to subsequent pemetrexed exposure (NSCLC cell line (H2030); H2030 first treated for four days with a taxane (docetaxel or paclitaxel)): resistance to subsequent pemetrexed exposure was induced; also recorded: develops resistance
- sensitivity to pemetrexed (NSCLC cell line (H2030); H2030 first treated with pemetrexed): sensitive
